Like-named read-outs stand apart in the source and are kept apart here.
Legend:
D2LR [1] = biological target: T1, D2LR (Homo sapiens, UniProt P14416); experiment: inhibition of forskolin-stimulated cAMP production, BRET biosensor; assay type: cell-based;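 further: Flp-In-CHO cells stably expressing CAMYEL cAMP BRET sensor, agonist plus 10 µM forskolin, net BRET after forskolin-vehicle subtraction, parameters from complete operational model of allosterism and agonism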
Procedure: Flp-In-CHO cells stably coexpressing the CAMYEL biosensor and DRs were plated into white 96-well CulturPlates (Revvity) and grown overnight. The cells were equilibrated in Hank’s balanced salt solution (HBSS) at 37 °C (or 25 °C when indicated) before starting the experiment. The cells were costimulated with the agonists and 10 μM forskolin for the indicated time frames when the BRET readings were captured. Coelenterazine (Nanolight Technology, AZ) was added at a final concentration of 5 μM at least 3 min prior to measurement. […] Net BRET was determined by subtraction of the vehicle control coadded with 10 μM forskolin.
Dose–response curves were fitted using the following three-parameter equation: response=bottom+top−bottom/1+10^(logEC50−log[A]) 5 where top and bottom represent the maximal and minimal asymptote of the dose response curve, [A] is the molar concentration of the agonist, and EC50 is the molar concentration of the agonist required to give a response half-way between bottom and top.

D2LR [2] = biological target: T1, D2LR; experiment: whole cell [3H]raclopride binding assay
Procedure: The binding reaction was conducted in HBSS for 1 h at 37 °C. The adherent cells were washed two times with cold 0.9% NaCl solution, and 100 μL/well scintilation liquid was added to the plate. The remaining radioactivity was detected in a MicroBeta counter.

D1Rs = details: earlier report, reference number not given; cited from earlier work
[3] = orthosteric agonist efficacy, operational model
[4] = orthosteric ligand, radioligand binding assay

T1 sequence (P14416 whole entry): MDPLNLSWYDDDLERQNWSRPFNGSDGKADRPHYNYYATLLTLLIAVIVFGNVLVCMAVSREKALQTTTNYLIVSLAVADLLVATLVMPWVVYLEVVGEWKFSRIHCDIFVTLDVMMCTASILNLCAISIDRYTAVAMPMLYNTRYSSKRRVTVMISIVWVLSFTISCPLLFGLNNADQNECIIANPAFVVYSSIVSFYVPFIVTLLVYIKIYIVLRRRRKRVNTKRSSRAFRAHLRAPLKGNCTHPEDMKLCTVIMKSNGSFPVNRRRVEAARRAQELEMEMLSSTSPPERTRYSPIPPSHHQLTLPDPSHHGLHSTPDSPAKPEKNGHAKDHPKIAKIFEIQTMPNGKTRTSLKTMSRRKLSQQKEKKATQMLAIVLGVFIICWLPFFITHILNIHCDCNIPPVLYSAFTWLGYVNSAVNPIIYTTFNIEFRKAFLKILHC

Row | LogτA (D2LR [1]; [3]) | τA (D2LR [1]; [3]) | SMILES | LogτA (D2LR [1]) | τA (D2LR [1]) | further results
1 | – | – | CN1CCc2cccc3c2[C@H]1Cc1ccc(O)c(O)c1-3 [apomorphine, reference compound] | 0.93 ± 0.02 | 8.5 | –
2 | – | – | CCCN(CCc1cccs1)[C@H]1CCc2c(O)cccc2C1 [rotigotine, reference compound] | 1.17 ± 0.05 | 14.8 | Kd (D2LR [2]): 3.09 nM
3 | 1.01 ± 0.03 | 10.2 | CCCN1C[C@H](CSC)C[C@@H]2c3cccc4[nH]cc(c34)C[C@H]21 [pergolide, reference compound] | – | – | –
4 | – | – | CC(C)C[C@H]1C(=O)N2CCC[C@H]2[C@]2(O)O[C@](NC(=O)[C@@H]3C=C4c5cccc6[nH]c(Br)c(c56)C[C@H]4N(C)C3)(C(C)C)C(=O)N12 [bromocriptine, reference compound] | 0.66 ± 0.04 | 4.6 | Kd (D2LR [2]): 1.32 nM
5 | – | – | CC1Cc2ccccc2N1C(=O)c1nc2ccccc2s1 (stereo not shown) [D2 PAM1, 1,3-benzothiazol-2-yl(2-methyl-2,3-dihydro-indol-1-yl)methanone] | – | – | activity at D1Rs (D1Rs): does not display activity
6 | – | – | CCCN[C@H]1CCc2nc(N)sc2C1 [pramipexole, reference compound] | 1.05 ± 0.04 | 11.2 | –
7 | 1.14 ± 0.08 | 13.8 | CCCN(CCC)CCc1cccc2c1CC(=O)N2 [ropirinole, reference compound] | – | – | KA (D2LR [2]; [4]): 1350 nM; pKA (D2LR [2]; [4]): 5.87 ± 0.18

Row | SMILES | LogτA (D2LR [1]; [3]) | τA (D2LR [1]; [3]) | LogτA (D2LR [1]) | τA (D2LR [1]) | further results
8 | CCCN1CCC[C@@H](c2cccc(O)c2)C1 [S-(3)-PPP, reference compound] | 0.33 ± 0.05 | 2.14 | – | – | –

— article PMC12186844 (ACS Chemical Neuroscience, 2025)
